Data set [1] relates to ΔTASK121^V600E-ER cells. Briefly: Morphological transformation of 3T3 cells upon 4OHT induction. The data set is classed as cell-based. The note with it: 200 nM 4OHT, within 24 hours.
For data set [2], the target named is ΔTASK121-ER (Mus musculus, UniProt P19785, G525R). The note with it: NIH 3T3 ΔTASK121-ER cells, minimal media, 0-2000 nM 4OHT for 24 hours. The source says:
(§1) To identify genes that are regulated specifically in response to TASK121 activation and not as a result of full mitogenic stimulation, TASK121 was conditionally activated using the previously described estrogen receptor (ER) fusion protein system (Samuels et al., Mol Cell Biol 13:6241-52 (1993)). The catalytic domains of wild-type and oncogenic human TASK121 (denoted as ΔTASK121 and ΔTASK121^V600E, respectively) were fused to a variant of the murine ER hormone-binding domain in which a G525R mutation switches responsiveness from endogenous estrogen to a synthetic antagonist, 4-hydroxytamoxifen (4OHT) (Danielian, et al., Mol Endocrinol 7:232-40 (1993)). […] NIH 3T3 cells expressing ΔTASK121-ER, ΔTASK121^V600E-ER or empty vector were derived by retroviral infection and several independent clones were characterized to ensure against a clonal selection bias. To determine effective doses for inducing TASK121 kinase activity, ΔTASK121-ER and ΔTASK121^V600EER cells were cultured in minimal media and stimulated with 0-2000 nM 4OHT for 24 hours. […] Accumulation of ΔTASK121-ER and ΔTASK121^V600E-ER chimeric proteins and corresponding ERK1/2 phosphorylation were detected by immunoblotting.

Data set [3] concerns the target ΔTASK121^V600E-ER (Mus musculus, UniProt P19785, G525R). The note with it: NIH 3T3 ΔTASK121^V600E-ER cells, minimal media, 0-2000 nM 4OHT for 24 hours.
Excerpt: as §1

Data set [4] relates to tumor. The note with it: nude mouse tumor model (Teicher et al. 2002); cited from earlier work.
The subject of data set [5] is MEK1/2. The method, then: Experiments were performed to identify the TASK121 downstream signals that are important for TASK122 expression. A375, 928-MEL, COL0205 and SK23-MEL cell lines were characterized for TASK121 and RAS activating mutations and TASK122 expression was measured by immunoblotting of these tumors cells when cultured in the presence or absence of the MEK1/2 inhibitor, U0126 (Favata et al., J Biol Chem 273:18623-32 (1998)).

The test system of data set [6] is endogenous TASK121. Briefly: Dox-induced shRNA knockdown in A375 melanoma cells, immunoblotting. The data set is classed as cell-based. An excerpt:
The regulation of TASK122 by TASK 121 was directly addressed in an RNAi knockdown experiment. A375 melanoma cells, which contain an endogenous TASK121^V600E allele, were infected with a retrovirus expressing either TASK121 specific shRNAs or a control firefly Luciferase shRNA. Hairpin oligonucleotides used in this study are as follows:
In this system, the Tet repressor protein binds a modified polIII promoter thereby preventing shRNA expression. However, in the presence of a tetracycline analog, doxycycline (Dox), the Tet repressor protein is released from the promoter resulting in shRNA transcription and knockdown of endogenous TASK121 or luciferase expression.

Where [7] appears, read: 10 μM U0126, A375, 928-MEL, COL0205 and SK23-MEL cell lines.

These results are taken from patent publication US20100034836A1, “COMPOSITIONS AND METHODS FOR THE DIAGNOSIS AND ALLEVIATION OF TUMOR” (priority 2006, published 2010).

Sequence of ΔTASK121^V600E-ER (P19785 315-551 G525R): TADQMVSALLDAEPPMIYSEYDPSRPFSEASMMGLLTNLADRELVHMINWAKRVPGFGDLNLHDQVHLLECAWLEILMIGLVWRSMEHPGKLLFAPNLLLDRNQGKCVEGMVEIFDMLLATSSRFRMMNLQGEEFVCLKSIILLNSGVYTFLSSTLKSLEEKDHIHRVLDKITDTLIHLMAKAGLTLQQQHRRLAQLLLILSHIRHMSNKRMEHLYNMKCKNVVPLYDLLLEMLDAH
Sequence of ΔTASK121^V600E-ER (P15056 457-717 V600E partner limits assumed): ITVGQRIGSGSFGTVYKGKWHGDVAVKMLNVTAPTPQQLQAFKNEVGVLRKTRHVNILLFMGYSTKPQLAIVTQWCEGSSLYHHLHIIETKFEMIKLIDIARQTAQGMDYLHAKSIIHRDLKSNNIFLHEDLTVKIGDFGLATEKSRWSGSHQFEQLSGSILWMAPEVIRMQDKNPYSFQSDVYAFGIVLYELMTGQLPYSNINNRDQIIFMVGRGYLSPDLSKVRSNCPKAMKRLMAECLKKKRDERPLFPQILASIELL
Sequence of ΔTASK121-ER (P19785 315-551 G525R limits assumed): as the sequence (P19785 315-551 G525R) above
Sequence of ΔTASK121-ER (P15056 457-717 partner limits assumed): as the sequence (P15056 457-717 V600E partner limits assumed) above, with E144V counted along it

Turning to 4-hydroxytamoxifen [4OHT], the cell morphology result in data set [1] was “refractile and spindle-shaped phenotype”. Further, the “4OHT concentration at which TASK121-mediated signaling was maximal” value came out at 100 nM in data set [2] and 10 nM in data set [3].
Consider `Cl.Cn1cc(C2=C(c3cn(C4CCN(Cc5ccccn5)CC4)c4ccccc34)C(=O)NC2=O)c2ccccc21` [317615-HCL], for which, in data set [4], the anti-tumor effect entry is “anti-tumor effect”.
On to `N#CC(=C(/N)Sc1ccccc1N)/C(C#N)=C(\N)Sc1ccccc1N` [U0126], for which the TASK122 expression entry in data set [5] (10 μM U0126, inhibition of ERK1/2 phosphorylation) is recorded as “abolished”. Also, in data set [5] (setting [7]), the ERK1/2 phosphorylation result is recorded as “decreased” and the “total ERK2 levels” value is given as “unaffected”.

B1: Luciferase shRNA: control firefly Luciferase shRNA, SEQ ID NO: 9 (sense) and 10 (antisense) (nucleic acid)
sense: GATCCCCCTTACGCTGAGTACTTCGATTCAAGAGATCGAAGTACTCAGCGTAAGTTTTTTGGAAA
antisense: AGCTTTTCCAAAAAACTTACGCTGAGTACTTCGATCTCTTGAATCGAAGTACTCAGCGTAAGGGG
modifications: the letters are possibly those of the target site
In the case of B1, in data set [6], the TASK122 levels entry was “did not alter”.

B2: TASK121 shRNA: hairpin oligonucleotides SEQ ID NO: 7 (sense) and SEQ ID NO: 8 (antisense), retrovirally expressed, Tet-regulated (nucleic acid)
sense: GATCCCCAGAATTGGATCTGGATCATTTCAAGAGAATGATCCAGATCCAATTCTTTTTTTGGAAA
antisense: AGCTTTTCCAAAAAAAGAATTGGATCTGGATCATTCTCTTGAAATGATCCAGATCCAATTCTGGG
modifications: the letters are possibly those of the target site
Turning to B2, in data set [6], the TASK122 levels result was “significant reduction”, the “phosphorylated ERK1/2” value is “significant reduction” and the “total ERK2 levels” value is listed as “remained unchanged”.
